# Where “and” joins values, the source holds several entries; their conditions need not be identical. Equal entries are not always repeated.
# Assays:
# [1] = in vivo; details: female, rhesus monkey
# Experimental: (§1) RT-SHIV was selected for the study since it contains the HIVHXBc2 RT that is sensitive to RPV. RT-SHIV was obtained through the NIH AIDS Reagent Program, Division of AIDS, NIAID, NIH[17]–[19]. The stock was maintained in liquid nitrogen in individual 1 mL aliquots until use. […] CAB LA and RPV LA were obtained from ViiV Healthcare and Janssen, respectively. […] CAB LA (50 mg/kg) and RPV LA (200 mg/kg) were given intramuscularly once a month[27],[45]. The macaque used in the terminal PK study received CAB LA (50 mg/kg) and RPV LA (200 mg/kg) from Cabenuva®.
# (§2) A cocktail of methanol containing internal standards was added to precipitate proteins. After a brief centrifugation and removal of protein precipitates, the supernatant was evaporated to near dryness and re-suspended with mobile phase A. An aqueous-acetonitrile mobile-phase gradient was used to elute the drugs from a C18 column (100*1 mm, Imtakt) and into the analyzer. Drug concentrations were calculated from a standard curve with a range of 0.5–2000 ng/mL using Analyst software. […] Plasma concentrations of CAB were measured weekly. Plasma concentrations of RPV were measured 4 (9 observations), 2 (2 observations), or 3 (2 observations) weeks after the previous injection. The concentrations of RPV in plasma, CSF, and tissues and the concentrations of CAB in CSF were measured at the Clinical Pharmacology and Analytical Chemistry (CPAC) Laboratory, University of North Carolina Center for AIDS Research. The LOQ for RPV in plasma is 1 ng/mL.
# [2] = cited from earlier work; for plasma levels in humans: 400 mg of CAB LA or 600 mg of RPV LA every month for 48 weeks ref 21; for apparent terminal elimination half-life: humans, single intramuscular injection ref 16
# [3] = no reference given; cited from earlier work
# [4] = Extracellular TFV, FTC, CAB and RPV in rectal tissue homogenates; format: in vivo, Rhesus macaques; details: collected after 1 to 3 months of ART
# Experimental: as §2
# [5] = CAB and RPV concentrations in macaque plasma; format: in vivo, Rhesus macaques; details: for median plasma levels during the treatment phase: macaques, monthly IM CAB LA 50 mg/kg and RPV LA 200 mg/kg; for plasma concentration, individual macaques: matched to CSF samples; for concentration at 4 weeks: matched to CSF: ~ 6 months of treatment, 4 weeks after the previous CAB LA/RPV LA injection, read-out: Plasma, median (range)
# Experimental: Plasma concentrations of CAB were measured weekly.
# [6] = Drug concentrations in cerebrospinal fluid (CSF); format: in vivo, Rhesus macaques; details: for Kp at 4 weeks: CSF and plasma, read-out: CSF-to-plasma ratio; for concentration at 4 weeks: CSF
# Experimental: as §2
# [7] = design: method as in Letendre; details: 7-10 days after injection ref Letendre; cited from earlier work
# [8] = no reference given; cited from earlier work; remark: listed apart in the source
# [9] = Intracellular TFV-DP and FTC-TP in lymph node mononuclear cells and rectal tissues; details: lymph node mononuclear cells from axillary or inguinal lymph nodes
# [10] = cited from earlier work; for median trough concentration in human PBMCs: reviewer comment, 25mg TAF dose ref 12
# [11] = for median concentration in PBMCs during the entire treatment period: eART + VES group; for median (range) concentration in PBMCs, period of full adherence / median (range) concentration in PBMCs, period of suboptimal adherence: eART group; for median (range) concentration in PBMCs, period of full adherence: months 0–3.5, 24 h post-dosing, oral FTC/TAF; for median (range) concentration in PBMCs, period of suboptimal adherence: months 3.5 to 6
# Experimental: as §1
# (§3) PBMCs were isolated from blood collected in BD Vacutainer® CPT™ Sodium Citrate Cell Preparation Tubes, and red blood cells were lysed with BioLegend RBC lysis buffer. Cell counts and viability were determined using a Guava Cell Counter and Cytosoft data acquisition and analysis software (version 6.02; Millipore Billerica, MA) or a Countess (Invitrogen). Three million viable cells were pelleted, washed with 1 mL of physiological saline, and resuspended in 500 µl ice-cold 80% methanol. Samples were vortexed for 1 min and immediately frozen at − 70 °C. Prior to analysis, cellular debris was pelleted, and supernatants were transferred to new tubes. Supernatants were dried down and reconstituted in 100 μl of 50 mM ammonium acetate buffer (pH 7.0), then centrifuged at 17,000 × g to remove insoluble particulates. […] Calibration curves were generated from serially diluted standards over the range from 0.25 to 10 nM.
# [12] = tested on: reverse transcriptase; details: Rectal
# Experimental: as §3
# [13] = rhesus monkey, in vivo
# [14] = Tissue concentration, Axillary lymph nodes
# [15] = Tissue concentration, Basal ganglia
# [16] = Tissue concentration, Cerebellum
# [17] = Tissue concentration, Cervical lymph nodes
# [18] = Tissue concentration, Iliac lymph nodes
# [19] = Tissue concentration, Inguinal lymph nodes
# [20] = Tissue concentration, Mesenteric lymph nodes
# [21] = Tissue concentration, Spinal cord
# [22] = median concentration in brain tissues
# [23] = median concentration in lymphoid tissues
# [24] = median concentration in the GI tract
# [25] = rhesus monkey, plasma, intramuscular
# [26] = rhesus monkey, intramuscular, 4 weeks after dosing (author rebuttal), read-out: macaque CSF values, approximate
# [27] = rhesus monkey, other: oral (FTC) and intramuscular (CAB LA), ~ 6 months of treatment, 4 weeks after the previous CAB LA/RPV LA injection, read-out: CSF, median (range)
# [28] = ~ 6 months of treatment, 4 weeks after the previous CAB LA/RPV LA injection
smiles,measurement,setting,value
"C[C@H]1CO[C@@H]2Cn3cc(C(=O)NCc4ccc(F)cc4F)c(=O)c(O)c3C(=O)N12 [CAB, cabotegravir]",times brain tissue concentration above the in vitro EC90,[1]; 3 weeks,~ 100
same,concentration at 3 weeks,[1]; [14],412 ng/g
same,concentration at 3 weeks,[1]; [15],26 ng/g
same,concentration at 3 weeks,"[1]; Tissue concentration, Cecum",1370 ng/g
same,concentration at 3 weeks,[1]; [16],58 ng/g
same,concentration at 3 weeks,[1]; [17],583 ng/g
same,concentration at 3 weeks,"[1]; Tissue concentration, Duodenum",569 ng/g
same,concentration at 3 weeks,"[1]; Tissue concentration, Ileum",695 ng/g
same,concentration at 3 weeks,[1]; [18],1280 ng/g
same,concentration at 3 weeks,[1]; [19],975 ng/g
same,concentration at 3 weeks,"[1]; Tissue concentration, Jejunum",643 ng/g
same,concentration at 3 weeks,[1]; [20],23700 ng/g
same,concentration at 3 weeks,"[1]; Tissue concentration, Rectum",773 ng/g
same,concentration at 3 weeks,[1]; [21],288 ng/g
same,concentration at 3 weeks,[1]; [22],58 ng/g
same,concentration at 3 weeks,[1]; [23],975 ng/g
same,concentration at 3 weeks,[1]; [24],695 ng/g
same,plasma levels in humans,[2],2740 ng/mL
same,apparent terminal elimination half-life,[2],39 to 80 days
same,in vitro EC90,[3],0.34 ng/mL
same,"Rectal tissues, extracellular drug, median (range)",[4],0.60 (0.25–2.65) ng/mg of tissue
same,median plasma levels during the treatment phase,[5],2400 ng/mL
same,"plasma concentration, individual macaques",[5],1040 ng/mL and 1050 ng/mL and 630 ng/mL and 480 ng/mL
same,decline of plasma concentration below the PA-IC90 after the last injection,[5]; [25],declined below the PA-IC90 two months later
same,times plasma level above the PA-IC90 during treatment,[5]; [25],13
same,concentration at 4 weeks,[5]; [25],835 ng/mL
same,Kp at 4 weeks,"[6]; rhesus monkey, intramuscular",0.006
same,concentration at 4 weeks,[6]; [26],~6 ng/mL
same,concentration at 4 weeks,[6]; [27],5.95 ng/mL
same,"CSF, median (range)",[6]; [28],5.95 (4.77–7.43) ng/mL
same,human CSF levels,[7],~10 ng/mL
same,protein-adjusted 90% inhibitory concentration (PA-IC90),[8],166 ng/mL
"CC(Cn1cnc2c(N)ncnc21)OCP(=O)(O)OP(=O)(O)OP(=O)(O)O (stereo in doubt) [TFV-DP, tenofovir diphosphate]","Lymph nodes, median (range)",[9],367 (142–620) fmol/10^6 cells
same,median trough concentration in human PBMCs,[10],523 fmol/10^6 cells
same,fold higher concentrations in PBMCs and lymphoid tissues than achieved with TDF,[11]; comparison with ref 10,about 10
same,median concentration in PBMCs during the entire treatment period,[11],1162 fmols/10^6 PBMCs
same,"median (range) concentration in PBMCs, period of full adherence",[11],1753 (275–2809) fmols/10^6 PBMCs
same,"median (range) concentration in PBMCs, period of suboptimal adherence",[11],329 (63–1688) fmols/10^6 PBMCs
same,times higher in PBMCs than in humans,[11]; full adherence vs humans treated with 25 mg of TAF,about 3.2
"Nc1nc(=O)n([C@@H]2CS[C@H](COP(=O)(O)OP(=O)(O)OP(=O)(O)O)O2)cc1F [FTC-TP, emtricitabine triphosphate]",Panel F ratio dCTP/FTC-TP,[12],82.22 and 103.48
same,"Rectal tissues, intracellular, median (range)",[13],BLQ (BLQ-17)
same,concentration in human PBMCs,[10]; humans treated with 25 mg of TAF (TFV-DP) or 300 mg of FTC (FTC-TP) ref 12,"2,060 fmols/10^6 PBMCs"
same,median peak concentration in human PBMCs,[10]; reviewer comment ref 12,5149 fmol/10^6 cells
same,median trough concentration in human PBMCs,[10],2060 fmol/10^6 cells
same,median concentration in PBMCs during the entire treatment period,[11],553 fmols/10^6 PBMCs
same,"median (range) concentration in PBMCs, period of full adherence",[11],573 (333–1528) fmols/10^6 PBMCs
same,"median (range) concentration in PBMCs, period of suboptimal adherence",[11],306 (undetectable-964) fmols/10^6 PBMCs
same,fold lower in PBMCs than in humans,[11]; full adherence vs humans treated with 300 mg of FTC,approximately 3.6
"C[C@H](Cn1cnc2c(N)ncnc21)OCP(=O)(O)O [TFV, tenofovir]","Rectal tissues, extracellular drug, median (range)",[4],0.64 (0.18–0.87) ng/mg of tissue
same,"CSF, median (range)",[6]; [28],not detected and BLQ
"Nc1nc(=O)n([C@@H]2CS[C@H](CO)O2)cc1F [FTC, emtricitabine]","Rectal tissues, extracellular drug, median (range)",[4],1.48 (0.22–2.16) ng/mg of tissue
same,concentration at 4 weeks,[6]; [27],2.36 ng/mL
same,"CSF, median (range)",[6]; [28],2.36 (BLQ-2.65) ng/mL
"CC(C)OC(=O)[C@H](C)N[P@](=O)(CO[C@H](C)Cn1cnc2c(N)ncnc21)Oc1ccccc1 [TAF, tenofovir alafenamide]",fold higher concentrations of TFV-DP in lymphoid tissues and PBMCs over TDF,[10],~ 6
"Cc1cc(/C=C/C#N)cc(C)c1Nc1ccnc(Nc2ccc(C#N)cc2)n1 [RPV, rilpivirine]",times brain tissue concentration above the in vitro EC90,[1]; 3 weeks,~ 500
same,times median brain tissue concentration higher than that of CAB,[1]; 3 weeks,5.8
same,concentration at 3 weeks,[1]; [14],773 ng/g
same,concentration at 3 weeks,[1]; [15],340 ng/g
same,concentration at 3 weeks,"[1]; Tissue concentration, Cecum",670 ng/g
same,concentration at 3 weeks,[1]; [16],259 ng/g
same,concentration at 3 weeks,[1]; [17],1770 ng/g
same,concentration at 3 weeks,"[1]; Tissue concentration, Duodenum",666 ng/g
same,concentration at 3 weeks,"[1]; Tissue concentration, Ileum",518 ng/g
same,concentration at 3 weeks,[1]; [18],736 ng/g
same,concentration at 3 weeks,[1]; [19],692 ng/g
same,concentration at 3 weeks,"[1]; Tissue concentration, Jejunum",697 ng/g
same,concentration at 3 weeks,[1]; [20],28800 ng/g
same,concentration at 3 weeks,"[1]; Tissue concentration, Rectum",447 ng/g
same,concentration at 3 weeks,[1]; [21],437 ng/g
same,concentration at 3 weeks,[1]; [22],340 ng/g
same,concentration at 3 weeks,[1]; [23],773 ng/g
same,concentration at 3 weeks,[1]; [24],666 ng/g
same,plasma levels in humans,[2],97.5 ng/mL
same,apparent terminal elimination half-life,[2],91 to 196 days
same,in vitro EC90,[3],0.66 ng/mL
same,"Rectal tissues, extracellular drug, median (range)",[4],0.45 (0.12–1.1) ng/mg of tissue
same,median plasma levels during the treatment phase,[5],108 ng/mL
same,"plasma concentration, individual macaques",[5],143 ng/mL and 152 ng/mL and 150 ng/mL and 153 ng/mL
same,persistence in plasma after the last dose,[5]; [25],2 years
same,concentration at 4 weeks,[5]; [25],151 ng/mL
same,Kp at 4 weeks,"[6]; rhesus monkey, intramuscular",0.028
same,concentration at 4 weeks,[6]; [26],~4 ng/mL
same,concentration at 4 weeks,[6]; [27],4.06 ng/mL
same,times CSF-to-plasma ratio higher than for CAB,"[6]; rhesus monkey, in vivo",4
same,"CSF, median (range)",[6]; [28],4.06 (2.93–4.52) ng/mL
same,human CSF levels,[7],~ 2 ng/ml
same,protein-adjusted 90% inhibitory concentration (PA-IC90),[8],12 ng/mL

# Reference: article PMC11618496, “SHIV remission in macaques with early treatment initiation and ultra long-lasting antiviral activity” (Nature Communications, 2024)
